# From patent publication US6756368B1, “Use of cobalt chelates for treating or preventing virus infection” (The Trustees of Columbia University in the City of New York, priority 1999, dated 2004)
# Entries after “also recorded” stand apart in the source; their conditions may differ. Read-outs that look alike come from different tables or passages of the source.
# Experiments:
# HSV-1 [1] = assay: Accumulation of α4 and α27 mRNAs (RT-PCR); format: cell-based, HSV-1 Glasgow strain 17
# Method: Vero cell monolayers were either mock infected or infected. The accumulation of α4 and α27 mRNAs from infected cells was determined as previously described [Lium and Silverstein 1997] by coupled reverse transcription (RT) and polymerase chain reaction (PCR) using the commercial kit, EZ rTth RNA PCR kit (Perkin-Elmer) as specified by the manufacturer with modifications. The primers used during RT were 4-2 and ICP27-L-RT [Lium and Silverstein 1997]. Following RT, secondary primers were added for PCR (4-1 and ICP27-U-RT) (55). These primers result in amplification of a 100 basepair (bp) fragment and a 220 bp fragment from the α4 and α27 genes, respectively.
# The failure to detect virus specified polypeptides of any kinetic class in cells infected in the presence of CTC96 led us to ask if virus transcripts accumulated under these conditions. Accordingly, virus was incubated with 50 μg/ml of drug for 10 min and then either washed out by dilution and used to infect cells or used directly to infect cells. At 2 and 4 hr post infection cells were harvested and total infected cell RNA was prepared for analysis by RT-PCR for the presence of transcripts from the ∝4 and ∝27 genes. […] When these studies are carried out to as long as 8 hr pi there is still no detectable accumulation of virus-specified transcripts (data not shown). […] (FIG. 15).
# Hela cells = details: 100 μg/ml, 2 days
# HSV-1 [2] = details: in vivo; cited from earlier work
# 293T cells = assay: Cytotoxic effect of drug on 293T cells; format: cell-based; details: 50 μg/ml, no virus
# Method: 2 plates of cells were incub. In D2 media +50 μg/ml CTC96 (to see cytotoxic effect of drug on 293T cells)
# Plates containing 293T cells +or − 50 μg/lm CTC96 were examined
# plates containing 293T cells +or − CTC96 were examined
# [3] = system: adenovirus serotype 2 (Ad2); assay: Fluorescence focus assay, Ad2 on A549 cells; format: cell-based; details: for Percent inhibition, Adenovirus: Ad2, A549
# Method: A549 or 293 cell monolayers were infected with Ad2 or Ad-CMV-null at 0.1 fluorescence focus units (FFUs) per cell for 2 h in 2% BCS DMEM in the presence and absence of 50 μg/ml CTC-96. At 29 h postinfection the plates were washed twice with PBS and fixed with methanol for 4 min at room temperature. Cells were washed twice with PBS, incubated in 500 μl 1:100 rabbit polyclonal anti-adenovirus serum in PBS for 30 min at room temperature and washed with PBS. Plates were then incubated in 500 μl 1:40 goat anti-rabbit IgG conjugated FITC in PBS. Foci were visualized using a Leitz Dialux microscope with an optical system for the selective visualization of FITC and then counted.
# A549s were plated on 35 mm dishes at 8×10^5 cell/plate in 10% FBS DMEM
# added 19.25 μl stock to 50 μl total of each respective media (+/− 0, 5, 25 or 50 μg/ml CTC96)
# After 2 h-added 3 ml of each respective media
# Incubated @37° C. for 28 h (total)
# [4] = system: vesicular stomatitis virus (VSV); format: cell-based, VSV strain Indiana
# HSV-1 [5] = system: HSV-1
# HSV-1 and 2 = details: cited from earlier work
# HSV-1 [6] = assay: Fluorescence dequenching fusion assay with R18 labeled HSV-1; format: cell-based, HSV-1 Glasgow strain 17; details: 50 μg/ml
smiles,measurement,setting,value
CC(/C=C(/C)[O-])=NCCN=C(C)/C=C(/C)[O-].Cc1ncc[nH]1.Cc1ncc[nH]1.[Br-].[Co+3] [CTC-96],time in which the action of the drug occurs,HSV-1 [1],less than 10 min
same,accumulation of α4 and α27 mRNAs,"HSV-1 [1]; 50 μg/ml present from onset of infection, 2 and 4 hr pi",neither the accumulation of α4 nor α27 mRNAs were detectable; also recorded: inhibits α4 and α27 gene expression
same,accumulation of α4 and α27 mRNAs,"HSV-1 [1]; 50 μg/ml present from onset of infection, 2 and 4 hr pi, listed as CTC96",no accumulation
same,accumulation of α4 and α27 mRNAs,"HSV-1 [1]; virus exposed to drug 10 min, drug then diluted/removed",began to accumulate
same,accumulation of α4 and α27 mRNAs,"HSV-1 [1]; virus exposed to drug 10 min, drug then diluted/removed, listed as CTC96",A small amount of immediate early gene RNA is detected
same,state of the HeLa cells,Hela cells,dead
same,effect on HSV-1 keratitis in the rabbit eye model,HSV-1 [2],reduce the corneal surface level of HSV-1 and facilitate the recovery from dendritic keratitis; also recorded: most potent inhibitory effect
same,cells rounded (CPE),293T cells; examined after fixation at 28 h,at least 50%
same,cells off of plate,293T cells; examined after staining,50%
same,remaining cells rounded up (CPE),293T cells; examined after staining,50%
same,average foci per field,"[3]; 25 μg/ml, Plate 1",26 = 3.9
same,total foci counted,"[3]; 25 μg/ml, Plate 1",102
same,average foci per field,"[3]; 25 μg/ml, Plate 2",? = 3.1
same,total foci counted,"[3]; 25 μg/ml, Plate 2",109
same,average foci per field,"[3]; 50 μg/ml, Plate 1",47 = 1.6
same,total foci counted,"[3]; 50 μg/ml, Plate 1",73
same,average foci per field,"[3]; 50 μg/ml, Plate 2",46 = 1.5
same,total foci counted,"[3]; 50 μg/ml, Plate 2",70
same,% Inhibition,"[3]; Adenovirus (2), A549, 50 μg/ml of CTC-96, fluorescence focus assay",36%
same,"Percent inhibition, Adenovirus",[3]; CTC-96 25 μg/ml,18%
same,"Percent inhibition, Adenovirus",[3]; CTC-96 50 μg/ml,64%
same,inhibition of VSV,"[4]; 50 μg/ml, Vero cells",100%
same,% Inhibition,"[4]; VSV (Indiana), Vero, 50 μg/ml of CTC-96, plaque assay",100%
same,VSV plaques,"[4]; dilution −5, 50 μg/ml CTC96",0
same,VSV plaques,"[4]; dilution −6, 50 μg/ml CTC96",0
same,VSV plaques,"[4]; dilution −7, 50 μg/ml CTC96",0
same,% Inhibition,"HSV-1 [5]; HSV-1 (17), Vero, 50 μg/ml of CTC-96, plaque assay",100%
same,No. of Plaques,"HSV-1 [5]; Initial [Drug] 0.016 μg/ml, Final [Drug] 0.016 μg/ml",114
same,No. of Plaques,"HSV-1 [5]; Initial [Drug] 50 μg/ml, Final [Drug] 0.0083 μg/ml",46
same,No. of Plaques,"HSV-1 [5]; Initial [Drug] 50 μg/ml, Final [Drug] 50 μg/ml",0
same,No. of Plaques,"HSV-1 [5]; Initial [Drug] 100 μg/ml, Final [Drug] 0.0016 μg/ml",23
same,No. of Plaques,"HSV-1 [5]; Initial [Drug] 100 μg/ml, Final [Drug] 100 μg/ml",0
same,resistance to HSV-1 after prior incubation of Vero cell monolayers,HSV-1 [5]; cells preincubated with 50 μg/ml CTC-96,partial resistance
same,HSV-1 plaque formation,HSV-1 [5]; concentrations of CTC-96 >50 μg/ml,completely inhibited
same,HSV-1 plaque formation,HSV-1 [5]; dilution of the drug after adsorption of the virus,only partially inhibited
same,plaque formation / infectivity after prior exposure of the virus to the drug,"HSV-1 [5]; virus incubated with 50 μg/ml 30 min, drug diluted prior to adsorption",no effect on plaque formation; also recorded: slightly reduced the infectivity
same,virus survived treatment,"HSV-1 [5]; virus suspension treated with drug 1 min, then diluted to final <1 ng/ml",~50%
same,HSV-1 plaque formation,HSV-1 [5]; ≧50 μg/ml of CTC-96,completely inhibited
same,HSV-1 production in tissue culture,HSV-1 and 2,effective in inhibiting HSV-1 production
same,rank among the CTC compounds against HSV,HSV-1 and 2; comparison of several CTC complexes,least cytotoxic and most effective of the CTC compounds; also recorded: most potent inhibitor of HSV-1 in tissue culture and in the rabbit eye model
same,fusion of the virus envelope with the plasma membrane,HSV-1 [6],prevented HSV-1 fusion to the cell; also recorded: inhibits the fusion of the virion envelope with the plasma membrane; also recorded: inhibited
same,fluorescence dequenching of R18,HSV-1 [6]; up to 40 min post-warming,significantly dampened
